In US12312329B2, “Aminopyrimidine compound used for inhibiting activity of protein kinase” (Shenzhen TargetRx, Inc., priority 2018, dated 2025):
Read-outs that look alike come from different tables or passages of the source.

What was measured:
[1] = molecular target: WT EGFR (Homo sapiens (Human), UniProt P00533); assay: Kinase inhibition assay (HTRF Kinase TK), WT EGFR; format: biochemical
Excerpt: (§1) WT EGFR (Carna, Cat. No 08-115), EGFR[L858R] (Carna, Cat. No 08-502), EGFR[L858R/T790M] (Carna, Cat. No 08-510), ATP (Sigma, Cat. No A7699-1G), DMSO (Sigma, Cat. No D2650), 96-well plate (Corning, Cat. No 3365), 384-well plate (Greiner, Cat. No 784076). HTRF Kinase TK Kit (Cisbio. Cat. No 62TK0PEJ), erlotinib (Selleckchem, Cat. No S7787), EGFR[d746-750] (Life Technologies, Cat. No PV6178), 5× kinase buffer A (Life Technologies, Cat. No PV3186), kinase tracer 199 (Life Technologies, Cat. No PV5830), LanthaScreen® Eu-anti-GST antibody (Life Technologies, Cat. No PV5594).
(§2) Formulation of compound: The test compound was dissolved in DMSO to prepare a 20 mM stock solution. The stock solution was then serially diluted 3-fold in DMSO to obtain ten concentrations. After the compound was added, a 10-fold dilution was performed with buffer.
(§3) WT EGFR and EGFR[L858R/T790M] kinase detection: In 5× kinase buffer A, WT EGFR or EGFR[L858R/T790M] kinase was mixed with different concentrations of compounds prepared by pre-dilution for 10 minutes. Each concentration was tested in duplicate. The corresponding substrate and ATP were added, and reaction was performed at room temperature for 20 minutes (negative and positive controls were provided: the negative control was a blank control, and the positive control was erlotinib). After completion of the reaction, detection reagents (reagents in the HTRF Kinase TK kit) were added. After incubating for 30 minutes at room temperature, enzyme activity in the presence of various concentrations of the compounds of the present disclosure was determined by Evnvision microplate reader, and inhibitory activity of different concentrations of the compounds on enzyme activity was calculated. The inhibitory activity of different concentrations of the compounds on enzyme activity was then fitted by Graphpad 5.0 software according to the four-parameter equation, and the IC50 value was calculated.

[2] = molecular target: EGFR[L858R/T790M] (Homo sapiens (Human), UniProt P00533, L858R/T790M); assay: Kinase inhibition assay (HTRF Kinase TK), EGFR[L858R/T790M]; format: biochemical
Excerpt: as §1, §2, §3

[3] = tested on: skin cancer cell A431; assay: Cytotoxicity assay (MTS cell viability), A431; format: cell-based; details: Homo sapiens, A-431, 72 hours
Description: (§4) In vitro anti-proliferation activity of the compound of the present disclosure on three tumor cell lines cultured in vitro was detected by the MTS method.
(§5) Cell lines: skin cancer cell A431 (purchased from the American Type Culture Collection (ATCC)); lung cancer cell NCI-H1975 (purchased from the American Type Culture Collection (ATCC)) and HCC827 (purchased from the American Type Culture Collection (ATCC)); all were cultured with RPM11640 medium containing 10% fetal bovine serum, 100 U/ml penicillin, and […] streptomycin.
(§6) Reagents and materials: RPMI-1640 (GIBCO, Cat. No A10491-01); fetal bovine serum (GIBCO, Cat. No 10099141): 0.25% trypsin-EDTA (GIBCO, Cat. No 25200); penicillin-streptomycin; liquid (GIBCO, Cat. No 15140-122); DMSO (Sigma, Cat. No D2650); MTS Assay Kit (Promega, Cat. No G3581), 96-well plate (Corning, Cat. No 3365).
as §2, with “solution, which was stored at −20° C.” for “solution.”, “4-fold” for “10-fold”, “cell culture medium.” for “buffer.”
(§7) MTS cell viability assay: cells in logarithmic growth phase was digested with 0.25% trypsin-EDTA, and 150 μl of the cells was inoculated in a 96-well plate at an optimized density. After 24 hours, the compound diluted 4 fold in the medium was added, 50 μl/well (generally ten concentrations were selected: 100, 33.3, 11.1, 3.70, 1.23, 0.412, 0.137, 0.0457, 0.0152, 0.00508 μM). The same volume of 0.5% DMSO was added in wells as a control. After the cells were cultured for another 72 hours, the cell viability was detected by MTS.
(§8) Specific procedure: The cells were adhered. The medium was discarded. A mixture containing 20 μL MTS and 100 μl medium was added to each well. After incubating for 1-4 hours in an incubator, OD490 was detected, with the OD650 value as a reference. A dose-effect curve was made using GraphPad Prism software and IC50 was calculated.

[4] = tested on: lung cancer cell HCC827 (Del19); assay: Cytotoxicity assay (MTS cell viability), HCC827; format: cell-based; details: Homo sapiens, 72 hours
Description: as §4, §5, §6
as §2, with “solution, which was stored at −20° C.” for “solution.”, “4-fold” for “10-fold”, “cell culture medium.” for “buffer.”
as §7, §8

[5] = tested on: lung cancer cell NCI-H1975 (L858R/T790M); assay: Cytotoxicity assay (MTS cell viability), NCI-H1975; format: cell-based; details: Homo sapiens, 72 hours
Description: as §4, §5, §6
as §2, with “solution, which was stored at −20° C.” for “solution.”, “4-fold” for “10-fold”, “cell culture medium.” for “buffer.”
as §7, §8

[6] = Pharmacokinetic assay in rats; format: in vivo, Sprague-Dawley rats; details: rat; for AUC(0-t) / Cmax / Tmax / half-life / AUC(0-inf) / MRT inf / bioavailability: male, Sprague-Dawley, plasma; for AUC(0-inf): read-out: AUCINF_pred; for MRT inf: read-out: MRTINF_pred; for bioavailability: PO 10 mg/kg vs IV 0.5 mg/kg
Description: Six male Sprague-Dawley rats (7-8 weeks old, and weighing about 210 g) were divided into 2 groups, 3 rats in each group. A single dose of compounds (10 mg/kg orally) was administered intravenously or orally to compare their pharmacokinetics.
The rats were fed with standard feed and water. Fasting was started 16 hours before the assay. The drug was dissolved in PEG400 and dimethyl sulfoxide. Blood was collected from the orbit. The time points for blood collection were 0.083 hours, 0.25 hours, 0.5 hours, 1 hour, 2 hours, 4 hours, 6 hours, 8 hours, 12 hours and 24 hours after administration.
The rats were briefly anesthetized after inhaling diethyl ether, and 300 μL of blood sample was collected from the orbit into a test tube containing 30 μL of 1% heparin salt solution. Before use, the test tube was oven dried overnight at 60° C. After the blood sample was collected at the last time point, the rats were anesthetized with diethyl ether and then sacrificed.
Immediately after the blood sample was collected, the test tube was gently inverted at least 5 times to ensure sufficient mixing, and then placed on ice. The blood sample was centrifuged at 5000 rpm at 4° C. for 5 minutes to separate the plasma from the red blood cells. 100 μL of plasma was aspirated into a clean plastic centrifuge tube with a pipette, and the name of the compound and time point were marked. The plasma was stored at −80° C. before analysis. The concentration of the compound of the present disclosure in plasma was determined by LC-MS/MS. The pharmacokinetic parameters were calculated based on the blood drug concentration of each animal at different time points.

EGFR[L858R/T790M], sequence (P00533 25-1210 T790M/L858R): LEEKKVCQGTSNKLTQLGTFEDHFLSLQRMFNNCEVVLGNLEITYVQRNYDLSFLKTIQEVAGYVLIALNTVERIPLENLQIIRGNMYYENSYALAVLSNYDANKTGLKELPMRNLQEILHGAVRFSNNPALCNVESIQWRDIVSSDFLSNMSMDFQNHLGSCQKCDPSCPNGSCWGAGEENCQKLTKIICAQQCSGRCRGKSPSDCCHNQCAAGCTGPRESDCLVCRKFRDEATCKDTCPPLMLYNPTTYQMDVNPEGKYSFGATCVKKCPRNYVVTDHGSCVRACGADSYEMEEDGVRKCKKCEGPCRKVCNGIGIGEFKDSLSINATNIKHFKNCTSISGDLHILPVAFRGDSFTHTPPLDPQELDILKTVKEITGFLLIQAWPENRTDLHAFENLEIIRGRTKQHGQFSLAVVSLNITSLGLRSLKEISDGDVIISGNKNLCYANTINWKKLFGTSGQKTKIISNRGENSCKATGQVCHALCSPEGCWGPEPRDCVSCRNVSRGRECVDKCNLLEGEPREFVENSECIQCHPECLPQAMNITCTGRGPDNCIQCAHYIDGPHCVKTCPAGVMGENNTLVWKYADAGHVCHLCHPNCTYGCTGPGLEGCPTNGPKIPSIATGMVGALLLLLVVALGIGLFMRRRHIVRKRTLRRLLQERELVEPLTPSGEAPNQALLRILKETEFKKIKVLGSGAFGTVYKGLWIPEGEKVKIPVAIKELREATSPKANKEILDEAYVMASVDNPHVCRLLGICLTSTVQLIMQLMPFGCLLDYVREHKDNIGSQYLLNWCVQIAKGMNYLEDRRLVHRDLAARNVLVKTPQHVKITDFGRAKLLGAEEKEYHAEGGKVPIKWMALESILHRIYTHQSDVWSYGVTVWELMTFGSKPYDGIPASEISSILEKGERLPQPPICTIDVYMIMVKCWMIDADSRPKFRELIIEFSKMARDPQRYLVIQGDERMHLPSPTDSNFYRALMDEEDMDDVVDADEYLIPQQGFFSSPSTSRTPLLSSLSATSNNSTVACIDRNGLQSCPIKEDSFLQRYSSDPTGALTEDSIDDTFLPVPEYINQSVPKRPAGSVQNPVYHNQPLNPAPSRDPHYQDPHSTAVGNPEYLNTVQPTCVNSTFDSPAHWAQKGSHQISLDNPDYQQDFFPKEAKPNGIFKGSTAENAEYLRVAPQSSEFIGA
WT EGFR, sequence (P00533 25-1210): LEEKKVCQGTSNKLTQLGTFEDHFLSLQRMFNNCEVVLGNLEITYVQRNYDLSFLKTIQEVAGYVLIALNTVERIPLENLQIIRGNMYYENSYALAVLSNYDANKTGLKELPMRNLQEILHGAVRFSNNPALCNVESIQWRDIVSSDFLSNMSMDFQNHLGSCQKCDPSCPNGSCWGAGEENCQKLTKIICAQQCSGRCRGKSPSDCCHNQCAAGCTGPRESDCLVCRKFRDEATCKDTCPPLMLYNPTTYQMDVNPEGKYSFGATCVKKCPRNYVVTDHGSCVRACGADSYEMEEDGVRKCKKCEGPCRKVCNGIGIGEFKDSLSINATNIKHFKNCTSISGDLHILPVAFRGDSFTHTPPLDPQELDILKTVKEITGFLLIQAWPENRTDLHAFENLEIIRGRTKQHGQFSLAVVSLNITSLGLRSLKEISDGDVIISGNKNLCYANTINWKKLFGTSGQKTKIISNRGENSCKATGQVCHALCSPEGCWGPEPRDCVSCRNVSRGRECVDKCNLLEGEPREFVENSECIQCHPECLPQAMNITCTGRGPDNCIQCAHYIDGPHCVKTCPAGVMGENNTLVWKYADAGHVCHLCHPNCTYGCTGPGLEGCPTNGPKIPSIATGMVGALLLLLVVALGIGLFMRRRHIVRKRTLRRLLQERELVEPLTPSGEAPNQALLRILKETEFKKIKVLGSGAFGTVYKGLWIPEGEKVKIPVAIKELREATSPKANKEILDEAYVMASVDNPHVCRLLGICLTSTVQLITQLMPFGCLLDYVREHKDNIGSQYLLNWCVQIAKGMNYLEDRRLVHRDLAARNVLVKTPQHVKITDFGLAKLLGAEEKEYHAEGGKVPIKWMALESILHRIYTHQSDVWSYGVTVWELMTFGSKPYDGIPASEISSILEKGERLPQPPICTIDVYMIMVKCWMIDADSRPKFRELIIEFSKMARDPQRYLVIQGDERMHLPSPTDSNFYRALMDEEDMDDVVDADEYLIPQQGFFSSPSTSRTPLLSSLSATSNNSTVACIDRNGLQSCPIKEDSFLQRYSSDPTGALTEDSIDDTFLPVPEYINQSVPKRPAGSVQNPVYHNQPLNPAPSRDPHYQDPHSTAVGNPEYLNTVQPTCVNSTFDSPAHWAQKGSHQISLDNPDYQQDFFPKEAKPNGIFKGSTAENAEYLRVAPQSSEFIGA

| IC50 [1] [nM] | IC50 [2] [nM] | AUC(0-t) ([6]; IV 0.5 mg/kg) [ng·h/mL] | Cmax ([6]; IV 0.5 mg/kg) [ng/mL] | Tmax ([6]; IV 0.5 mg/kg) [h] | half-life ([6]; IV 0.5 mg/kg) [h] | AUC(0-inf) ([6]; IV 0.5 mg/kg) [ng·h/mL] | MRT inf ([6]; IV 0.5 mg/kg) [h] | AUC(0-t) ([6]; PO 10 mg/kg) [ng·h/mL] | Cmax ([6]; PO 10 mg/kg) [ng/mL] | Tmax ([6]; PO 10 mg/kg) [h] | half-life ([6]; PO 10 mg/kg) [h] | bioavailability [6] [%] | Cl_pred ([6]; IV 0.5 mg/kg) [mL/min/kg] | Vz_pred ([6]; IV 0.5 mg/kg) [L/kg] | Cl_pred ([6]; PO 10 mg/kg) [mL/min/kg] | Vz_pred ([6]; PO 10 mg/kg) [L/kg] | Structure (SMILES) | IC50 [3] [nM] | IC50 [4] [nM] | IC50 [5] [nM] | also measured |
| --- | --- | --- | --- | --- | --- | --- | --- | --- | --- | --- | --- | --- | --- | --- | --- | --- | --- | --- | --- | --- | --- |
| 1.29 | 0.4 | 328 | 246 | 0.08 | 2.8 | 341 | 2.32 | 1430 | 91.1 | 5.33 | 8.69 | 21.8 | 24.5 | 5.94 | 97.5 | 73.39 | C=CC(=O)Nc1cc(Nc2nccc(-n3cc(CN(C)C)c(-c4ccccc4)n3)n2)c(OC)nc1N1CCOCC1 [Compound T-1, N-(5-((4-(4-((dimethylamino)methyl)-3-phenyl-1H-pyrazol-1-yl)pyrimidin-2-yl)amino)-6-methoxy-2-morpholinopyridin-3-yl)acrylamide] | 260 | 3.64 | 2.43 | AUC(0-inf) ([6]; PO 10 mg/kg): 1790 ng·h/mL; MRT inf ([6]; PO 10 mg/kg): 9.11 h |
| 3.33 | 0.44 | 284 | 268 | 0.08 | 2.17 | 289 | 1.95 | 753 | 69.3 | 2.33 | 6.4 | 25.1 | 29.2 | 5.49 | 200.8 | 111.2 | C=CC(=O)Nc1cc(Nc2ncc(F)c(-n3cc(CN(C)C)c(-c4ccccc4)n3)n2)c(OC)nc1N1CCOCC1 [Compound T-2, N-(5-((4-(4-((dimethylamino)methyl)-3-phenyl-1H-pyrazol-1-yl)-5-fluoropyrimidin-2-yl)amino)-6-methoxy-2-morpholinopyridin-3-yl) acrylamide] | 1410 | 8.25 | 9.51 | AUC(0-inf) ([6]; PO 10 mg/kg): 840 ng·h/mL; MRT inf ([6]; PO 10 mg/kg): 7.67 h |
| 6.29 | 0.6 | – | – | – | – | – | – | – | – | – | – | – | – | – | – | – | C=CC(=O)Nc1cc(Nc2ncc(C)c(-n3cc(CN(C)C)c(-c4ccccc4)n3)n2)c(OC)nc1N1CCOCC1 [Compound T-3, N-(5-((4-(4-((dimethylamino)methyl)-3-phenyl-H-pyrazol-1-yl)-5-methylpyrimidin-2-yl)amino)-6-methoxy-2-morpholinopyridin-3-yl)acrylamide] | 342 | 12.1 | 21.9 | – |
| 1.98 | 0.81 | – | – | – | – | – | – | – | – | – | – | – | – | – | – | – | C=CC(=O)Nc1cc(Nc2nccc(-n3cc(CN(C)C)c(-c4ccccc4)n3)n2)c(OC(C)C)nc1N1CCOCC1 [Compound T-4, N-(5-((4-(4-((dimethylamino)methyl)-3-phenyl-1H-pyrazol-1-yl)-pyrimidin-2-yl)amino)-6-isopropoxy-2-morpholinopyridin-3-yl)acrylamide] | 130 | 5.06 | 13.2 | – |
| 0.55 | 1.15 | – | – | – | – | – | – | – | – | – | – | – | – | – | – | – | C=CC(=O)Nc1cc(Nc2nccc(-c3cc(CN(C)C)n(-c4ccccc4)n3)n2)c(OC)cc1N1CCOCC1 [Compound T-7, N-(5-((4-(5-((dimethylamino)methyl)-1-phenyl-1H-pyrazol-3-yl)pyrimidin-2-yl)amino)-4-methoxy-2-morpholinophenyl)acrylamide] | 226 | 4.44 | 23.5 | – |
| – | – | – | – | – | – | – | – | – | – | – | – | – | 17.5 | 5.73 | 94.2 | 61.56 | C=CC(=O)Nc1cc(Nc2nccc(-n3cc(CN(C)C)c(-c4ccccc4)n3)n2)c(OC)cc1N1CCOCC1 [YH25448, reference compound] | – | – | – | – |
